Source: patent publication US6727237B2, “Inhibitors of bacterial NAD synthetase” (priority 1998, dated 2004)

Biological target: T1, bacterial NAD synthetase enzyme (Bacillus subtilis, UniProt P08164)
T1 sequence (P08164 2-272 limits assumed): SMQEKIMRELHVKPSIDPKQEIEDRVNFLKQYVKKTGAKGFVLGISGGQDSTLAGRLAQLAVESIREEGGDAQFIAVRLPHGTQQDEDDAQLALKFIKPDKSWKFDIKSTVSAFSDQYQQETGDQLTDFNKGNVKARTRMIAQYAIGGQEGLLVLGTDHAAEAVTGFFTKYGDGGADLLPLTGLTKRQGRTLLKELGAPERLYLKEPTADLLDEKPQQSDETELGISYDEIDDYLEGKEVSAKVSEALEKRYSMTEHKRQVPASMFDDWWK
Experiment: biochemical
Assay type: biochemical

[1] = compound at 0.2 mM (Table 312A)
[2] = compound at 0.2 mM (Table 312B)

SMILES: Fc1ccc2[nH]c(CCCCCCCC[n+]3ccc4ccccc4c3)cc2c1 [Compound 563]
- % Inhibition [1]: 22.68%

SMILES: C[N+](C)(C)c1cccc(C(=O)OCCCCc2cc3cc(C(=O)c4ccccc4)ccc3[nH]2)c1 [Compound 880]
- % Inhibition (compound at 0.25 mM): 96.7%

SMILES: COC(=O)c1cc2ccccc2n1CCCCCCCCCOC(=O)c1ccc[n+](C)c1 [Compound 974]
- IC50: 35 µM
- inhibition at 100 µM: 88.2%

SMILES: c1ccc2[nH]c(CCCCCCCC[n+]3cccc4ccccc43)cc2c1 [Compound 395]
- % Inhibition (compound at 0.1 mM (Table 314)): 20.85%

SMILES: CC(=O)Oc1cccc(OCCCCCCCCOC(=O)Cc2ccc(N(C)C)cc2)c1 [Compound 1027]
- % Inhibition [2]: 2%

SMILES: c1ccc(Oc2ccc3[nH]c(CCCCCCC[n+]4cccc5ccccc54)cc3c2)cc1 [Compound 460]
- % Inhibition [1]: 4.17%

SMILES: C[N+](C)(C)c1ccc(CC(=O)OCCCCCCCCOc2ccc(Oc3ccccc3)cc2)cc1 [Compound 1090]
- IC50: 21.2 µM
- inhibition at 200 µM: 96%

SMILES: O=C(OCCCCCCCc1cc2cc(Oc3ccccc3)ccc2[nH]1)c1cccnc1 [Compound 685]
- % Inhibition [1]: 7.81%

SMILES: COC(=O)C=Cc1cn(CCCCC[n+]2cccc(C(=O)OC)c2)c2ccccc12 [Compound 268]
- % Inhibition [1]: 11.23%

SMILES: O=[N+]([O-])c1cc([N+](=O)[O-])c2[nH]c(CCCCCCCC[n+]3ccc4ccccc4c3)cc2c1 [Compound 527]
- % Inhibition [1]: 73.78%

SMILES: C[N+](C)(C)c1ccc(CC(=O)OCCCCCCCCOc2ccccc2C(=O)Nc2ccccc2)cc1 [Compound 1074]
- IC50: 30 µM
- inhibition at 200 µM: 91%

SMILES: c1ccc(C(c2ccccc2)(c2ccccc2)c2ccc3[nH]c(CCCCCC[n+]4cccc5ccccc54)cc3c2)cc1 [Compound 447]
- % Inhibition [1]: 2.30%

SMILES: COc1ccc2c(ccn2CCCCCOC(=O)c2ccc[n+](C)c2)c1 [Compound 761]
- % Inhibition [1]: 6.88%

SMILES: COc1ccc2[nH]c(CCCCCC[n+]3ccc4ccccc4c3)cc2c1 [Compound 591]
- % Inhibition [1]: 18.59%

SMILES: C[N+](C)(C)c1ccc(CC(=O)OCCCCCCCCOc2ccc(C(=O)c3ccccc3)cc2)cc1 [Compound 1088]
- % Inhibition [2]: 100%

SMILES: CC(C)c1ccc2[nH]c(CCCCCCCCOC(=O)c3ccc([N+](C)(C)C)cc3)cc2c1 [Compound 891]
- IC50: 80 µM
- inhibition at 250 µM: 99.9%

SMILES: COc1ccc2[nH]c(CCCCCCCC[n+]3ccccc3)cc2c1 [Compound 377]
- % Inhibition [1]: 30.12%

SMILES: O=C(O)c1ccc2[nH]c(CCCC[n+]3ccccc3)cc2c1 [Compound 385]
- % Inhibition [1]: 61.62%

SMILES: C[n+]1cccc(C(=O)OCCCCCCCCOc2ccc(C=CC(=O)c3ccccc3)cc2)c1 [compound 1063]
- % Inhibition [2]: 32%

SMILES: CC(=O)c1ccc2[nH]c(CCCCCCCC[n+]3ccccc3)cc2c1 [Compound 371]
- % Inhibition [1]: 43.85%

SMILES: CC(=O)c1ccccc1OCCCCCCCCOC(=O)c1ccc[n+](C)c1 [compound 1056]
- % Inhibition [2]: 18%

SMILES: CC(=O)c1ccc2[nH]c(CCCCCCC[n+]3cccc4ccccc43)cc2c1 [Compound 478]
- % Inhibition [1]: 9.76%

SMILES: FC(F)(F)c1ccc2[nH]c(CCC[n+]3ccccc3)cc2c1 [Compound 360]
- % Inhibition [1]: 3.46%

SMILES: Cc1ccc2[nH]c(CCCCCCCC[n+]3ccccc3)cc2c1 [Compound 299]
- % Inhibition [1]: 49.13%

SMILES: C[N+](C)(C)c1ccc(CC(=O)OCCCCCCCCn2ccc3cc(NC(=O)c4ccccc4)ccc32)cc1 [Compound 1104]
- IC50: 61 µM

SMILES: C[N+](C)(C)c1cccc(C(=O)OCCCCCCCCc2cc3ccc(C(F)(F)F)cc3[nH]2)c1 [Compound 870]
- % Inhibition (compound at 0.25 mM): 63.1%

SMILES: COc1ccccc1OCCCCCCCCOC(=O)Cc1ccc([N+](C)(C)C)cc1 [Compound 1087]
- IC50: 40 µM
- inhibition at 200 µM: 61%

SMILES: CC(=O)c1ccc2[nH]c(CCCCCCCOC(=O)c3cccc([N+](C)(C)C)c3)cc2c1 [Compound 878]
- IC50: 80 µM
- inhibition at 100 µM: 96.4%

SMILES: O=C(O)c1ccc2[nH]c(CCCCCCC[n+]3ccccc3)cc2c1 [Compound 388]
- % Inhibition [1]: 25.86%

SMILES: FC(F)(F)c1ccc2[nH]c(CCCCCCC[n+]3cccc4ccccc43)cc2c1 [Compound 472]
- % Inhibition (compound at 0.1 mM (Table 314)): 12.76%

SMILES: CN(C)c1ccc(CC(=O)OCCCCCCCCOc2ccc(C(=O)c3ccccc3)cc2)cc1 [Compound 1040]
- % Inhibition [2]: 3%

SMILES: COc1ccccc1OCCCCCCCCOC(=O)Cc1ccc(N(C)C)cc1 [Compound 1039]
- % Inhibition [2]: 30%

SMILES: O=C(O)/C=C/c1cn(CCCC[n+]2cccc3ccccc32)c2ccccc12 [Compound 154]
- % Inhibition (compound at 0.1 mM (Table 314)): 9.24%

SMILES: C[N+](C)(C)c1ccc(C(=O)OCCCCc2cc3cc(C(=O)c4ccccc4)ccc3[nH]2)cc1 [Compound 895]
- % Inhibition (compound at 0.25 mM): 95.7%

SMILES: COC(=O)c1ccc2[nH]c(CCCC[n+]3ccccc3)cc2c1 [Compound 379]
- % Inhibition [1]: 6.27%

SMILES: CC(C)c1ccc2[nH]c(CCCCCCCCOC(=O)c3cccc([N+](C)(C)C)c3)cc2c1 [Compound 876]
- IC50: 75 µM
- inhibition at 100 µM: 95.4%

SMILES: Fc1cc(F)c2[nH]c(CCCCCCCC[n+]3cccc4ccccc43)cc2c1 [Compound 413]
- % Inhibition [1]: 4.76%

SMILES: FC(F)(F)c1ccc2cc(CCCCCCCC[n+]3ccccc3)[nH]c2c1 [Compound 293]
- % Inhibition [1]: 87.66%

SMILES: FC(F)(F)c1ccc2[nH]c(CCC[n+]3ccc4ccccc4c3)cc2c1 [Compound 576]
- % Inhibition [1]: 2.05%

SMILES: Fc1cc(F)c2[nH]c(CCCCCCC[n+]3ccccc3)cc2c1 [Compound 304]
- % Inhibition (compound at 0.1 mM (Table 314)): 29.48%

SMILES: O=[N+]([O-])c1ccc2[nH]c(CCC[n+]3ccccc3)cc2c1 [Compound 330]
- % Inhibition [1]: 23.96%

SMILES: FC(F)(F)c1ccc2[nH]c(CCCCCCCC[n+]3ccc4ccccc4c3)cc2c1 [Compound 581]
- % Inhibition [1]: 21.66%

SMILES: CC(C)c1ccc2[nH]c(CCCC[n+]3ccc4ccccc4c3)cc2c1 [Compound 535]
- % Inhibition [1]: 12.61%

SMILES: Cc1ccc2[nH]c(CCC[n+]3ccc4ccccc4c3)cc2c1 [Compound 510]
- % Inhibition [1]: 20.99%

SMILES: O=C(OCCCCCCCCOc1ccc(Oc2ccccc2)cc1)c1cccnc1 [Compound 1016]
- % Inhibition [2]: 29%

SMILES: COc1ccc2c(ccn2CCCCCCOC(=O)c2ccc[n+](C)c2)c1 [Compound 762]
- % Inhibition [1]: 40.05%

SMILES: O=C(OCCCCCCCCOc1ccccc1N1CCOCC1)c1cccnc1 [Compound 1020]
- % Inhibition [2]: 8%

SMILES: COC(=O)c1cc2ccccc2n1CCCCCCCCCOC(=O)c1cccnc1 [Compound 950]
- % Inhibition (compound at 0.05 mM): 7.32%

SMILES: COC(=O)c1ccc2[nH]c(CCCCCCCC[n+]3ccccc3)cc2c1 [Compound 383]
- % Inhibition [1]: 2.76%

SMILES: COc1cccc(OCCCCCCCCOC(=O)c2ccc[n+](C)c2)c1 [compound 1057]
- % Inhibition [2]: 59%

SMILES: c1ccc(Oc2ccc3[nH]c(CCCCCC[n+]4ccc5ccccc5c4)cc3c2)cc1 [Compound 567]
- % Inhibition [1]: 22.51%

SMILES: C[N+](C)(C)c1ccc(C(=O)OCCCCCCCCc2cc3ccc(C(F)(F)F)cc3[nH]2)cc1 [Compound 885]
- % Inhibition (compound at 0.25 mM): 98.0%

SMILES: O=[N+]([O-])c1cc([N+](=O)[O-])c2[nH]c(CCC[n+]3ccc4ccccc4c3)cc2c1 [Compound 522]
- % Inhibition [1]: 35.74%

SMILES: FC(F)(F)c1ccc2cc(CCCC[n+]3ccccc3)[nH]c2c1 [Compound 715]
- % Inhibition (compound at 0.1 mM (Table 314)): 20.73%

SMILES: CC(=O)c1ccc(OCCCCCCCCOC(=O)Cc2ccc([N+](C)(C)C)cc2)cc1 [Compound 1078]
- IC50: 123 µM
- inhibition at 200 µM: 68%

SMILES: O=C(c1ccccc1)c1ccc2[nH]c(CCCC[n+]3ccc4ccccc4c3)cc2c1 [Compound 571]
- % Inhibition [1]: 17.47%

SMILES: O=C(OCCCCCCCCOc1ccc(C(=O)c2ccccc2)cc1)c1cccnc1 [Compound 1013]
- % Inhibition [2]: 29%

SMILES: CC(=O)c1ccc2[nH]c(CCC[n+]3ccc4ccccc4c3)cc2c1 [Compound 582]
- % Inhibition [1]: 6.13%

SMILES: CN(C)c1ccc(C(=O)OCCCCCCCc2cc3cc(Oc4ccccc4)ccc3[nH]2)cc1 [Compound 619]
- % Inhibition [1]: 19.53%

SMILES: COC(=O)c1cc2ccccc2n1CCCCCCOC(=O)c1ccc[n+](C)c1 [Compound 971]
- % Inhibition (compound at 0.1 mM (Table 314)): 100.00%

SMILES: C[n+]1ccc(C(=O)OCCCCc2cc3cc(Oc4ccccc4)ccc3[nH]2)cc1 [Compound 901]
- % Inhibition (compound at 0.25 mM): 32.8%

SMILES: CC(C)c1ccc2[nH]c(CCCCCCCCOC(=O)Cc3ccc[n+](C)c3)cc2c1 [Compound 936]
- IC50: 60 µM
- inhibition at 100 µM: 97.8%

SMILES: Cc1ccc2[nH]c(CCCCCCCC[n+]3ccc4ccccc4c3)cc2c1 [Compound 515]
- % Inhibition [1]: 30.39%

SMILES: O=[N+]([O-])c1ccc2[nH]c(CCCC[n+]3ccccc3)cc2c1 [Compound 712]
- % Inhibition [1]: 12.59%

SMILES: O=[N+]([O-])c1ccc2[nH]c(CCCCCCCC[n+]3ccccc3)cc2c1 [Compound 335]
- % Inhibition [1]: 3.28%

SMILES: COc1ccc2[nH]c(CCCCCCC[n+]3cccc4ccccc43)cc2c1 [Compound 484]
- % Inhibition [1]: 39.95%
